Where “and” joins values, the source holds several entries; their conditions need not be identical. Identical values can stand only once.
Key:
[1] = Stability of finafloxacin solutions comprising Tris; assay type: physicochemical; conditions: compositions comprising Tris
Source text: (§1) However, Tris is herein used as solubility enhancing agent. […] Both effects lead to a completely unexpected result. Tris is therefore to be regarded as a specific tool to considerably enhance the solubility of finafloxacin in solutions. By preparing compositions comprising Tris it is possible to dissolve finafloxacin stably in such an amount therein that these compositions can effectively be used as parenteral compositions for the treatment of UTIs.

[2] = system: fluoroquinolone-susceptible pathogens in the urine; experiment: Concentration of pathogens in the urine of patients with uncomplicated UTIs after a single oral dose; assay type: in vivo; conditions: for Bacteria per ml urine - hours after dose: 2 hours: 2 hours after oral dose of 300 mg finafloxacin or 250 mg ciprofloxacin; for Bacteria per ml urine - hours after dose: 2 hours / Bacteria per ml urine - hours after dose: 4 hours / Bacteria per ml urine - hours after dose: 8 hours: individual patients, uncomplicated UTI; for Bacteria per ml urine - hours after dose: 4 hours: 4 hours after oral dose of 300 mg finafloxacin or 250 mg ciprofloxacin; for Bacteria per ml urine - hours after dose: 8 hours: 8 hours after oral dose of 300 mg finafloxacin or 250 mg ciprofloxacin
Procedure: Patients with uncomplicated UTIs were treated with an oral dose of 300 mg finafloxacin or 250 mg of ciprofloxacin and the concentrations of the fluoroquinolone-susceptible pathogens in the urine were determined before and 2, 4 and 8 hours after intake of the drugs. (−bacterial titers below 10^3).

[3] = system: Stenotrophomonas maltophilia clinical isolate; experiment: Reduction of viable bacteria after 1 h exposure in broth adjusted to different pH values; assay type: cell-based; conditions: 1 h of incubation, inoculum 10^6 colony forming units per ml
Procedure: (§2) An overnight inoculum of 10^6 colony forming units per ml broth adjusted to different pH values of different pathogens was exposed to finafloxacin. Bacterial growth was determined before and after 1 h of incubation.

Pseudomonas aeruginosa = experiment: as above; assay type: cell-based; conditions: 1 h of incubation, inoculum 10^6 colony forming units per ml
Procedure: as §2

[4] = system: complicated UTIs or pyelonephritis; experiment: Double-blind, randomized clinical study, complicated UTIs or pyelonephritis: treatment success (combined clinical and microbiological response); assay type: in vivo, patients; conditions: 17 days after start of treatment
[5] = Solubility of finafloxacin in the presence of Tris; assay type: physicochemical; conditions: compared with other buffer substances (e.g. phosphate buffer)
Source text: as §1

[6] = system: isolate (pathogen from urine of patients with uncomplicated UTI); experiment: MIC of the patients' urine isolates; assay type: cell-based; conditions: ciprofloxacin MIC of each patient's isolate (patients 1-7, one line per patient)

SMILES	stability of solutions [1]	Bacteria per ml urine - hours after dose: 2 hours [2]	Bacteria per ml urine - hours after dose: 2 hours ([2]; listed as finafloxacin)	Bacteria per ml urine - hours after dose: 4 hours [2]	Bacteria per ml urine - hours after dose: 8 hours [2]	time after intake within which pathogens are eradicated in the urine ([2]; oral formulation, patients with uncomplicated UTIs)	number of viable bacteria in the medium reduced by ([3]; pH 5.2)	number of viable bacteria in the medium reduced by ([3]; pH 7.2)	number of viable bacteria in the medium reduced by (Pseudomonas aeruginosa; pH 5.2)	number of viable bacteria in the medium reduced by (Pseudomonas aeruginosa; pH 6.2)	number of viable bacteria in the medium reduced by (Pseudomonas aeruginosa; pH 7.2)	treatment success (combined clinical response and microbiological response) ([4]; overall treatment duration 5 days (3 days intravenous 800 mg daily, then oral 800 mg daily))	treatment success (combined clinical response and microbiological response) ([4]; overall treatment duration 10 days (3 days intravenous, then 7 days oral))	solubility [5]	MIC of isolate [Cipro mg/L] [6]	Bacteria per ml urine - hours after dose: 2 hours ([2]; listed as ciprofloxacin)	Bacteria per ml urine - hours after dose: 4 hours ([2]; listed as ciprofloxacin)
N#Cc1c(N2C[C@@H]3NCCO[C@H]3C2)c(F)cc2c(=O)c(C(=O)O)cn(C3CC3)c12 [Finafloxacin, (−)-8-cyano-1-cyclopropyl-6-fluoro-7-[(4aS,7aS)-hexahydropyrrolo[3,4-B]-1,4-oxazin-6(2H)-yl]-4-oxo-1,4-dihydroquinoline-3-carboxylic acid]	long term stability	— (bacterial titers below 10^3)	below 10^3 Bacteria per ml urine	— (bacterial titers below 10^3)	— (bacterial titers below 10^3)	≤ 2 h	87.4%	99.8%	98.6%	99.3%	99.9%	70.3%	67.6%	high solubility	–	–	–
O=C(O)c1cn(C2CC2)c2cc(N3CCNCC3)c(F)cc2c1=O [Ciprofloxacin, reference compound]	–	— (bacterial titers below 10^3) and 2.0 × 10^3 Bacteria per ml urine and 6.1 × 10^4 Bacteria per ml urine	–	— (bacterial titers below 10^3) (2×) and 2.7 × 10^3 Bacteria per ml urine	— (bacterial titers below 10^3)	–	–	–	–	–	–	–	–	–	0.012 mg/L (3×) and 0.19 mg/L (2×) and 0.008 mg/L (2×)	above 10^3 Bacteria per ml urine	above 10^3 Bacteria per ml urine
